According to US20190381127A1, “COMBINATION THERAPY WITH A6, CHEMOTHERAPEUTIC AGENTS, RADIATION THERAPY, OR A COMBINATION THEREOF FOR THE TREATMENT OF CANCER” (Splash Pharmaceuticals, Inc., priority 2016, published 2019):

Key:
[1] = tested on: bovine retinal microvascular endothelial cells; experiment: Retinal endothelial cell VE-cadherin / MMP study; format: cell-based
[2] = tested on: CD44-expressing SKOV3 cells; experiment: Cell binding to HA coated plates; format: cell-based, human
From the text: A6 shares sequence homology with the Link Module of CD44. […] This effect was blocked with the anti-CD44 antibody, IM7. […] Without being bound by any particular A6 can induce conformational changes in CD44, resulting in either a lowered affinity of the epitope for DF1485, or preventing DF1485 from binding CD44. The binding of A6 to CD44 results in a modulation of CD44-mediated intracellular signaling and establishes a functional relationship between A6 and CD44 in CD44 expressing cells.

[3] = tested on: 2008 cells; experiment: CCK-8 cytotoxicity, A6 plus DDP; format: cell-based, human; conditions: A6 1, 10 or 100 μM 1 h, then 1 h A6 plus DDP; 10% FBS
Protocol: Conditions: Drugs: DDP (3.33 mM stock) and A6 (109.8 mM stock); Drug exposure time: 1 hour ; Cell line: 2008 and its DDP-resistant subline 2008/C31*5.25; Media: RPMI 1640 plus 10% FBS containing 1 mM penicillin/streptomycin; Cytotoxicity Assays: CCK-8 (Cell Counting Kit 8—Dojindo Molecular Technologies).
Tissue culture plates containing 96-well plates were seeded with 3000 cells in 100 μl of media per well. The wells on rows A-D were seeded with 2008 cells, while the wells on rows E-H were seeded with 2008/C13*5.25 cells. The cells were allowed to attach overnight in a 37° C. in 5% CO2 incubator. Approximately 24 h later medium was removed by aspiration and the cells were exposed to 0, 1, 10 or 100 μM A6 peptide in 100 μl. After 1 h, increasing concentrations of DDP were added to triplicate wells in 100 μl medium. Following a 1 h exposure to the combination of A6 and DDP, the drugs were removed by aspiration. The cells were then allowed to grow for 96 h following which the plates were assayed for relative cell growth with the CCK-8 assay.
The assay was performed using triplicate wells for each DDP concentration. […]

[4] = tested on: B16-F10 cells; experiment: Inhibition of chemotaxis; format: cell-based; conditions: read-out: IC50 for A6 inhibition of chemotaxis
[5] = tested on: ovarian cancer
Protocol: Asymptomatic Progression of Ovarian Cancer: A randomized, double-blind, placebo-controlled Phase 2 clinical trial evaluating A6 in women with asymptomatic CA-125 progression of ovarian cancer (“marker-only relapse” or MOR) was conducted. […] Because patients were clinically asymptomatic at the time of entry, the study was able to be placebo-controlled. The primary endpoints were time to clinical progression of disease and safety of A6. The secondary endpoints included changes in serum CA125. This study enrolled 24 patients: 12 were randomized to daily self-administration of A6 at two doses, and 12 to matching placebo injections. Both groups were followed for up to 9 months.

[6] = tested on: advanced gynecologic cancer; experiment: Phase 1b trial in advanced gynecologic cancer
Protocol: Advanced Gynecologic Cancer: A Phase 1b trial, was conducted in women with advanced gynecologic cancer. […] The study used a sequential dose-escalation design, with the lowest-dose group (4 patients) receiving A6 for cycles of 14 days “on” followed by 14 days “off”, a regimen not expected to produce any therapeutic effect. […] Patients continued treatment until disease progression or unacceptable toxicity. Response was evaluated as defined by RECIST and the Gynecologic Cancer Intergroup (GCIG) CA-125 response criteria.

[7] = tested on: CD44-negative A2780 cells; experiment: Boyden chamber migration; format: cell-based, human
[8] = tested on: persistent or recurrent epithelial ovarian, fallopian tube, or primary peritoneal carcinoma; experiment: Phase 2 trial, persistent or recurrent ovarian cancer
Protocol: Persistent or Recurrent Ovarian Cancer: A Phase 2 trial was conducted in patients with persistent or recurrent epithelial ovarian, fallopian tube, or primary peritoneal carcinoma to evaluate A6 in a patient population with a disease burden greater than that presented in the previously described MOR trial. Patients had received one prior platinum-based chemotherapeutic regimen and were allowed to have received one additional cytotoxic regimen for the management of recurrent or persistent disease. Patients received a 150 mg twice daily subcutaneous dose of A6 and continued on treatment until disease progression or unacceptable toxicity. Response criteria were as defined by RECIST. Primary measures of clinical efficacy were objective tumor response and PFS at 6 months compared to a historical Gynecologic Oncology Group (GOG) dataset based on a similar population of patients.

[9] = tested on: IGROV-1/CP cells; experiment: CCK-8 cytotoxicity, A6 plus DDP; format: cell-based, human; conditions: A6 1, 10 or 100 μM 1 h, then 1 h A6 plus DDP
Protocol: Study Conditions. Drugs: […] Drug exposure time: 1 hour; Cell line: IGROV-1 and its DDP-resistant subline IGROV-1/CP; Media: RPMI 1640 plus 10% FBS containing 1 mM penicillin/streptomycin; Cytotoxicity Assays: CCK-8 (Cell Counting Kit 8—Dojindo Molecular Technologies). Tissue culture plates containing 96-well plates were seeded with 4000 cells in 100 μl of media per well. The wells on rows A-D were seeded with IGROV-1 cells, while the wells on rows E-H were seeded with IGROV-1/CP cells. […] After 1 h, increasing concentrations of DDP were added to triplicate wells in […] medium. […] The cells were then allowed to grow for 96 h following which the plates were assayed for relative cell growth with the CCK-8 assay. CCK-8 assay. […] of CCK-8 stain was added to each well and the plate was incubated at 37° C. incubator for 4 h. The plate was read with a microplate reader at a wavelength of 450 nm. (See FIGS. 7A-7D and FIG. 8). The assay was performed using triplicate wells for each DDP concentration. The data in the tables below is the optical density in the well which is a function of the number of live cells remaining at the end of the 96 h growth period.

[10] = tested on: FAK phosphorylation in CD44-positive SKOV3 cells; experiment: FAK phosphorylation signaling study; format: cell-based, human
Protocol: Human ovarian SKOV3 cells were bound and cross-linked to A6. […] To determine if this binding influenced CD44-mediated activity, and to determine if a functional relationship existed between A6 and CD44, intracellular signaling studies were conducted.

[11] = tested on: human PC-3M-LN4 prostate cancer cells; experiment: Orthotopic prostate cancer metastasis model; format: in vivo, BALB/c (nu/nu) mice
Protocol: Prostate: A model of prostate cancer was used to evaluate the antimetastatic effect of A6 in mice. Metastases to lymph nodes were measured following the orthotopic injection of human PC-3M-LN4 prostate cancer cells into the prostates of BALB/c (nu/nu) mice.

[12] = tested on: A2780/CP cells; experiment: CCK-8 cytotoxicity, A6 plus DDP; format: cell-based, human; conditions: A6 1, 10 or 100 μM 1 h, then 1 h A6 plus DDP; 10% FBS
Protocol: Study Conditions. Drugs: […] Drug exposure time: 1 hour; Cell line: […] Media: RPMI 1640 plus 10% FBS containing 1 mM penicillin/streptomycin; Cytotoxicity Assays: CCK-8 (Cell Counting Kit 8-Dojindo Molecular Technologies). Tissue culture plates containing 96-well plates were seeded with 4000 cells in 100 μl of media per well. The wells on rows A-[…] cells, while the wells on rows E-[…]/CP cells. […] After 1 h, increasing concentrations of DDP were added to triplicate wells in 100 μl medium. […] The cells were then allowed to grow for 96 h following which the plates were assayed for relative cell growth with the CCK-8 assay. CCK-8 assay. Five μl of CCK-8 stain was added to each well and the plate was incubated at 37° C. incubator for 4 h. The plate was read with a microplate reader at a wavelength of 450 nm. (See FIGS. 5A-5D and FIG. 6). The assay was performed using triplicate wells for each DDP concentration. The data in the tables below is the optical density in the well which is a function of the number of live cells remaining at the end of the 96 h growth period.

[13] = 150 mg twice daily subcutaneous

## Ac-KPSSPPEE-NH2 [A6, Ac-KPSSPPEE-NH2]
[1]
  MMP dependent VE-cadherin degradation and loss of permeability: inhibit MMP dependent VE-cadherin degradation and the loss of permeability
  secretion and activation of MMP-2 and MMP-9: prevented the secretion and activation
[2]
  binding of cells to HA coated plates: increase the binding
[3]
  modulation of sensitivity to DDP: failed to modulate the sensitivity
[4]
  IC50: 29 nM
[5]; in vivo
  CA125 response: not associated with CA125 response
  complete responses: no complete responses
  patients achieving stable disease: 36%
  safety profile: comparable to that of control (placebo) treatment
[5]; placebo 49 days
  median progression free survival (PFS): 100 days
[6]; continuous treatment
  median time to progression (TTP): 78 days
[6]; in vivo
  safety outcome: no specific toxicity profile
[6]; intermittent therapy (14 days on, 14 days off)
  median time to progression (TTP): 44 days
[6]; patients dosed continuously
  patients with disease stabilization: Greater than 40%
[7]
  effect on migration: no effect
[8]; [13]
  evaluable patients achieving stable disease: 36%
  patients progression free for at least 6 months: 6.5%
[8]; 150 mg twice daily subcutaneous, 31 eligible patients
  objective tumor response: no responses were observed
[8]; in vivo
  tolerability: well tolerated
[9]
  modulation of sensitivity to DDP: failed to modulate the sensitivity
[10]
  FAK phosphorylation: modulate FAK phosphorylation
[11]; more than 70% in the control group
  percentage of mice with lymph node metastases: ≥ 22%
[11]; mouse, in vivo
  reduction of lymph node volume: ≤ 70%
[12]
  modulation of sensitivity to DDP: failed to modulate the sensitivity
human, in vivo
  adverse events: no systemic drug-related adverse events
  cumulative increase in concentration over time: no cumulative increase in concentration over time was detected
Subcutaneous twice daily for 6 days, day 14
  anti-A6 antibody production: no anti-A6 antibody production was detected
